One test deals with T1, human GLP-1R (Homo sapiens, UniProt P43220).
T1 construct: expressed in transfected cells; crude membranes
Briefly: [125I]-GLP-1 binding, SPA with WGA beads, 0.1% bacitracin. To be noted: geometric mean, read-out: hGLP1R Ki. The method, boiled down:
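Binding buffer was 25 mM HEPES pH 7.4 with 2.5 mM CaCl2, 1 mM MgCl2, 0.1% (w/v) bacitracin, 0.003% Tween-20 and EDTA-free protease inhibitors. Four-parameter regression gave IC50, converted to Ki (geometric mean, SEM, n independent days).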

The next test deals with T2, human GIPR (Homo sapiens, UniProt P48546).
T2 construct: expressed in transfected cells; crude membranes
T2 sequence (P48546 22-466): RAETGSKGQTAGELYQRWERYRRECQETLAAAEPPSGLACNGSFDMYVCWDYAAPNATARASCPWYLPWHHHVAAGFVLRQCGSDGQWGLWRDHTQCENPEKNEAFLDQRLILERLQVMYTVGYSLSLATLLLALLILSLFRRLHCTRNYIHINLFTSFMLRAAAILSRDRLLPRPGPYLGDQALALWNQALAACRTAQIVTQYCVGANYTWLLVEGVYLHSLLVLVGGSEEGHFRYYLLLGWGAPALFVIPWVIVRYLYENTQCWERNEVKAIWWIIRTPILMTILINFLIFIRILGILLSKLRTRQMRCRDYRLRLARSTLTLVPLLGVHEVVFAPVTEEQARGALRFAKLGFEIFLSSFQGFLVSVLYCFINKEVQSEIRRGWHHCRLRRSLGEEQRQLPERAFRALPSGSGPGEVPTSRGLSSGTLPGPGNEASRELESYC
In words: [125I]-GIP binding, SPA with WGA beads, 0.1% bacitracin. To be noted: geometric mean, read-out: hGIPR Ki. The method, boiled down: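 Ki values are geometric means (SEM, n independent days), derived from four-parameter nonlinear regression of IC50. Membranes came from hGIPR-expressing CHO cells.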

In the next test the target is T3, human GcgR (Homo sapiens, UniProt P47871).
T3 construct: expressed in transfected cells; crude membranes
T3 sequence (P47871 26-477): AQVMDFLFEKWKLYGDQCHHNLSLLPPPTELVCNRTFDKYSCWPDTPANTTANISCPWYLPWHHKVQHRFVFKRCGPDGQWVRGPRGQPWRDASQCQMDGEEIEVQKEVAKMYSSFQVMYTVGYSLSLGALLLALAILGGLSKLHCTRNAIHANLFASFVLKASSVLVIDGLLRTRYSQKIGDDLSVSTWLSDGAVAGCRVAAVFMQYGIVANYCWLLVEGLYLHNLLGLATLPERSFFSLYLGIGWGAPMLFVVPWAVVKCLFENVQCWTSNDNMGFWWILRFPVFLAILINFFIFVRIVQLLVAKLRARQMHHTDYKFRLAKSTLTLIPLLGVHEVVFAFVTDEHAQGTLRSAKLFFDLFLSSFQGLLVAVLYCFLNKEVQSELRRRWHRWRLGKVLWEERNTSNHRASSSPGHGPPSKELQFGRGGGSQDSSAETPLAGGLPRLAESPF
In words: [125I]-Glucagon binding, SPA with WGA beads, 0.1% bacitracin. To be noted: geometric mean, read-out: hGcgR Ki. Put shortly: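 SPA competition binding with WGA beads on crude membranes from HEK293 cells stably expressing hGcgR. Buffer: 25 mM HEPES pH 7.4, 2.5 mM CaCl2, 1 mM MgCl2, 0.1% bacitracin, 0.003% Tween-20; 10-point 3-fold dilutions, NSB with 1 μM Gcg.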

*1 amine or outer side, *2 acyl side, *3 side chain or, on linkers, in order; H or OH if unused. Where a SMILES comes first, the peptide text is derived from it. Side-chain parts run from the residue outwards. [ ]: non-standard residue; d: D form. The star is where a group is joined. C20 diacid = O=C(O)CCCCCCCCCCCCCCCCCCC(=O)*; C18 diacid = O=C(O)CCCCCCCCCCCCCCCCC(=O)*; αMePhe(2-F) = C[C@](N)(Cc1ccccc1F)C(=O)O; γGlu = O=C(O)[C@H](CCC(=O)[*:2])N[*:1]; 4Pal = N[C@@H](Cc1ccncc1)C(=O)O; αMeL = CC(C)C[C@](C)(N)C(=O)O; Orn = NCCC[C@H](N)C(=O)O; AEEA = NCCOCCOCC(=O)O; Aib = CC(C)(N)C(=O)O

T1 sequence (P43220 24-463): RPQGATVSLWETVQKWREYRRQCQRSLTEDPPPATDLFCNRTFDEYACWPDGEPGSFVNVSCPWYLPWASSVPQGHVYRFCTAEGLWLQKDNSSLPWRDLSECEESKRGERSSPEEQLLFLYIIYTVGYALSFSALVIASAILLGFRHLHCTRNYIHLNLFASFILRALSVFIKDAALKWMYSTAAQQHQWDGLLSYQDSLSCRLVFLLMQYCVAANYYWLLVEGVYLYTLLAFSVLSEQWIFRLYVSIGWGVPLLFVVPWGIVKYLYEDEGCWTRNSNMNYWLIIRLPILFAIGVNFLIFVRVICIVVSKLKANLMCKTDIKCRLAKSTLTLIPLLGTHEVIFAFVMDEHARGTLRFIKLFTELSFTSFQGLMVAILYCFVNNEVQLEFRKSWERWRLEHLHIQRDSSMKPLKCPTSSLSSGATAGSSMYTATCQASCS

One may read the Ki as a dissociation constant, usually derived from enzyme kinetics or from competition with a known ligand. As to `CC[C@H](C)[C@H](NC(=O)[C@H](CCCN)NC(=O)[C@H](CC(=O)O)NC(=O)[C@H](CC(C)C)NC(=O)[C@](C)(CC(C)C)NC(=O)[C@@H](NC(=O)[C@H](CO)NC(=O)[C@H](Cc1ccc(O)cc1)NC(=O)[C@H](CC(=O)O)NC(=O)[C@H](CO)NC(=O)[C@@H](NC(=O)[C@H](Cc1ccccc1)NC(=O)[C@@H](NC(=O)CNC(=O)[C@H](CCC(=O)O)NC(=O)C(C)(C)NC(=O)[C@@H](N)Cc1ccc(O)cc1)[C@@H](C)O)[C@@H](C)CC)[C@@H](C)CC)C(=O)N[C@@H](Cc1c[nH]cn1)C(=O)N[C@@H](CCC(N)=O)C(=O)NC(C)(C)C(=O)N[C@@H](CC(=O)O)C(=O)N[C@@H](Cc1ccccc1)C(=O)N[C@H](C(=O)N[C@@H](CCC(=O)O)C(=O)N[C@@H](Cc1ccncc1)C(=O)N[C@@H](CCCCNC(=O)COCCOCCNC(=O)COCCOCCNC(=O)CC[C@H](NC(=O)CCCCCCCCCCCCCCCCC(=O)O)C(=O)O)C(=O)N[C@@H](CC(C)C)C(=O)N[C@@H](CCC(=O)O)C(=O)NCC(=O)NCC(=O)N1CCC[C@H]1C(=O)N[C@@H](CO)C(=O)N[C@@H](CO)C(=O)NCC(=O)N[C@@H](C)C(=O)N1CCC[C@H]1C(=O)N1CCC[C@H]1C(=O)N1CCC[C@H]1C(=O)N[C@@H](CO)C(N)=O)C(C)C` [Example 111] (H-Y[Aib]EGTFISDYSI[αMeL]LD[Orn]IHQ[Aib]DFVE[4Pal]K([AEEA-AEEA-γGlu-C18 diacid])LEGGPSSGAPPPS-NH2), the figures for the Ki on human GLP-1R, on human GIPR and on human GcgR were more than 908 nM, 0.0871 nM and more than 960 nM, respectively.
For `CC[C@H](C)[C@H](NC(=O)[C@H](CO)NC(=O)[C@H](Cc1ccc(O)cc1)NC(=O)[C@H](CC(=O)O)NC(=O)[C@H](CO)NC(=O)[C@@H](NC(=O)[C@](C)(Cc1ccccc1F)NC(=O)[C@@H](NC(=O)CNC(=O)[C@H](CCC(=O)O)NC(=O)C(C)(C)NC(=O)[C@@H](N)Cc1ccc(O)cc1)[C@@H](C)O)[C@@H](C)CC)C(=O)N[C@@H](C)C(=O)N[C@@H](CC(C)C)C(=O)N[C@@H](CC(=O)O)C(=O)N[C@@H](CCCCN)C(=O)N[C@H](C(=O)N[C@@H](Cc1c[nH]cn1)C(=O)N[C@@H](CCC(N)=O)C(=O)NC(C)(C)C(=O)N[C@@H](CC(=O)O)C(=O)N[C@@H](Cc1ccccc1)C(=O)N[C@H](C(=O)N[C@@H](CCC(=O)O)C(=O)N[C@@H](Cc1ccncc1)C(=O)N[C@@H](CCCCNC(=O)COCCOCCNC(=O)COCCOCCNC(=O)CC[C@H](NC(=O)CCCCCCCCCCCCCCCCCCC(=O)O)C(=O)O)C(=O)N[C@@H](CC(C)C)C(=O)N[C@@H](CCC(=O)O)C(=O)NCC(=O)NCC(=O)N1CCC[C@H]1C(=O)N[C@@H](CO)C(=O)N[C@@H](CO)C(=O)NCC(=O)N[C@@H](C)C(=O)N1CCC[C@H]1C(=O)N1CCC[C@H]1C(=O)N1CCC[C@H]1C(=O)N[C@@H](CO)C(N)=O)C(C)C)[C@@H](C)CC` [Example 112] (H-Y[Aib]EGT[αMePhe(2-F)]ISDYSIALDKIHQ[Aib]DFVE[4Pal]K([AEEA-AEEA-γGlu-C20 diacid])LEGGPSSGAPPPS-NH2), the figures for the Ki at human GLP-1R, at human GIPR and at human GcgR were more than 908 nM, 0.0742 nM and 257 nM, respectively.
Regarding `CC[C@H](C)[C@H](NC(=O)[C@H](CO)NC(=O)[C@H](Cc1ccc(O)cc1)NC(=O)[C@H](CC(=O)O)NC(=O)[C@H](CO)NC(=O)[C@@H](NC(=O)[C@](C)(Cc1ccccc1F)NC(=O)[C@@H](NC(=O)CNC(=O)[C@H](CCC(=O)O)NC(=O)C(C)(C)NC(=O)[C@@H](N)Cc1ccc(O)cc1)[C@@H](C)O)[C@@H](C)CC)C(=O)N[C@@H](C)C(=O)N[C@@H](CC(C)C)C(=O)N[C@@H](CC(=O)O)C(=O)N[C@@H](CCCCN)C(=O)N[C@H](C(=O)N[C@@H](Cc1c[nH]cn1)C(=O)N[C@@H](CCC(N)=O)C(=O)NC(C)(C)C(=O)N[C@@H](CC(=O)O)C(=O)N[C@@H](Cc1ccccc1)C(=O)N[C@H](C(=O)N[C@@H](CCC(=O)O)C(=O)N[C@@H](Cc1ccncc1)C(=O)N[C@@H](CCCCNC(=O)COCCOCCNC(=O)COCCOCCNC(=O)CC[C@H](NC(=O)CCCCCCCCCCCCCCCCCCC(=O)O)C(=O)O)C(=O)N[C@@H](CC(C)C)C(=O)N[C@@H](CCC(=O)O)C(=O)N[C@@H](C)C(=O)NCC(=O)N1CCC[C@H]1C(=O)N[C@@H](CO)C(=O)N[C@@H](CO)C(=O)NCC(=O)N[C@@H](C)C(=O)N1CCC[C@H]1C(=O)N1CCC[C@H]1C(=O)N1CCC[C@H]1C(=O)N[C@@H](CO)C(N)=O)C(C)C)[C@@H](C)CC` [Example 113] (H-Y[Aib]EGT[αMePhe(2-F)]ISDYSIALDKIHQ[Aib]DFVE[4Pal]K([AEEA-AEEA-γGlu-C20 diacid])LEAGPSSGAPPPS-NH2), the figures for the Ki at human GLP-1R, on human GIPR and on human GcgR were more than 921 nM, 0.108 nM and 821 nM, respectively.
For the compound `CC[C@H](C)[C@H](NC(=O)[C@H](CO)NC(=O)[C@H](Cc1ccc(O)cc1)NC(=O)[C@H](CC(=O)O)NC(=O)[C@H](CO)NC(=O)[C@@H](NC(=O)[C@](C)(Cc1ccccc1F)NC(=O)[C@@H](NC(=O)CNC(=O)[C@H](CCC(=O)O)NC(=O)C(C)(C)NC(=O)[C@@H](N)Cc1ccc(O)cc1)[C@@H](C)O)[C@@H](C)CC)C(=O)N[C@@H](C)C(=O)N[C@@H](CC(C)C)C(=O)N[C@@H](CC(=O)O)C(=O)N[C@@H](CCCCN)C(=O)N[C@H](C(=O)N[C@@H](Cc1c[nH]cn1)C(=O)N[C@@H](CCC(N)=O)C(=O)NC(C)(C)C(=O)N[C@@H](CC(=O)O)C(=O)N[C@@H](Cc1ccccc1)C(=O)N[C@H](C(=O)N[C@@H](CCC(=O)O)C(=O)N[C@@H](Cc1ccncc1)C(=O)N[C@@H](CCCCNC(=O)COCCOCCNC(=O)COCCOCCNC(=O)CC[C@H](NC(=O)CCCCCCCCCCCCCCCCCCC(=O)O)C(=O)O)C(=O)N[C@@H](CC(C)C)C(=O)N[C@@H](CCC(=O)O)C(=O)N[C@@H](CCC(N)=O)C(=O)NCC(=O)N1CCC[C@H]1C(=O)N[C@@H](CO)C(=O)N[C@@H](CO)C(=O)NCC(=O)N[C@@H](C)C(=O)N1CCC[C@H]1C(=O)N1CCC[C@H]1C(=O)N1CCC[C@H]1C(=O)N[C@@H](CO)C(N)=O)C(C)C)[C@@H](C)CC` [Example 114] (H-Y[Aib]EGT[αMePhe(2-F)]ISDYSIALDKIHQ[Aib]DFVE[4Pal]K([AEEA-AEEA-γGlu-C20 diacid])LEQGPSSGAPPPS-NH2), the Ki is more than 921 nM at human GLP-1R, 0.121 nM at human GIPR and more than 971 nM on human GcgR.
For the compound `CC[C@H](C)[C@H](NC(=O)[C@H](CCCCN)NC(=O)[C@H](CC(=O)O)NC(=O)[C@H](CC(C)C)NC(=O)[C@](C)(CC(C)C)NC(=O)[C@@H](NC(=O)[C@H](CO)NC(=O)[C@H](Cc1ccc(O)cc1)NC(=O)[C@H](CC(=O)O)NC(=O)[C@H](CO)NC(=O)[C@@H](NC(=O)[C@H](Cc1ccccc1)NC(=O)[C@@H](NC(=O)CNC(=O)[C@H](CCC(=O)O)NC(=O)C(C)(C)NC(=O)[C@@H](N)Cc1ccc(O)cc1)[C@@H](C)O)[C@@H](C)CC)[C@@H](C)CC)C(=O)N[C@@H](CCCNC(=N)N)C(=O)N[C@@H](CCC(N)=O)C(=O)NC(C)(C)C(=O)N[C@@H](CC(=O)O)C(=O)N[C@@H](Cc1ccccc1)C(=O)N[C@H](C(=O)N[C@@H](CCC(=O)O)C(=O)N[C@@H](Cc1ccc(O)cc1)C(=O)N[C@@H](CCCCNC(=O)COCCOCCNC(=O)COCCOCCNC(=O)CC[C@H](NC(=O)CCCCCCCCCCCCCCCCCCC(=O)O)C(=O)O)C(=O)N[C@@H](CC(C)C)C(=O)N[C@@H](CCC(=O)O)C(=O)NCC(=O)NCC(=O)N1CCC[C@H]1C(=O)N[C@@H](CO)C(=O)N[C@@H](CO)C(=O)NCC(=O)N[C@@H](C)C(=O)N1CCC[C@H]1C(=O)N1CCC[C@H]1C(=O)N1CCC[C@H]1C(=O)N[C@@H](CO)C(N)=O)C(C)C` [Example 115] (H-Y[Aib]EGTFISDYSI[αMeL]LDKIRQ[Aib]DFVEYK([AEEA-AEEA-γGlu-C20 diacid])LEGGPSSGAPPPS-NH2), the figures for the Ki at human GLP-1R, on human GIPR and at human GcgR were more than 912 nM, 0.0997 nM and 373 nM, respectively.

Source of the values: US12723063B2, “GIPR-agonist compounds” (Eli Lilly and Company, priority 2019, dated 2026).
